Numbered stars: 1 amine (or outer) side, 2 acyl side, 3 side chain; on linkers, the order of the positions; unused ones are H or OH. Square brackets hold non-standard residues; d marks the D form. Peptide text beside a SMILES is read from it. * marks the point of attachment. ξ: configuration not given here. X1 = CCC(=O)C[C@H](O)C[C@@H](C)C[C@H](N[*:1])C(=O)[*:2]; Nva(5-pentanoyl) = CCCCC(=O)CCC[C@H](N)C(=O)O; NH((S)CH(Me)CH2NHC2H4OH) = C[C@@H](CNCCO)N*; Gly(octyl) = CCCCCCCC[C@H](N)C(=O)O; Nva = CCC[C@H](N)C(=O)O; Ac3c = NC1(C(=O)O)CC1; Aib = CC(C)(N)C(=O)O; Butyryl = CCCC(=O)*; ξP = O=C(O)C1CCCN1; βAla = NCCC(=O)O
What was measured:
Format in all cases: functional, cell-based
[1] = system: MDA-MB-468; assay: Antiproliferative activity against human MDA-MB-468 cells
[2] = system: NCI-H460; assay: Antiproliferative activity against human NCI-H460 cells
[3] = system: T47D; assay: Antiproliferative activity against human T47D cells
[4] = system: SK-BR-3; assay: Antiproliferative activity against human SKBR3 cells

SMILES | IC50 [1] [nM] | IC50 [2] [nM] | IC50 [3] [nM] | IC50 [4] [nM]
CCCCC(=O)CCC[C@H](NC(=O)C1CCCN1C(=O)CCC)C(=O)NC(C)(C)C(=O)NC(C)(C)C(=O)N[C@@H](C)C(=O)N[C@@H](CC(C)C)C(=O)NC(C)(C)C(=O)N[C@@H](CC(C)C)C(=O)NCCC(=O)N[C@@H](C)CNCCO (stereo partly drawn) (Butyryl-[ξP][Nva(5-pentanoyl)][Aib][Aib]AL[Aib]L[βAla]-{NH((S)CH(Me)CH2NHC2H4OH)}) | > 1000 | > 1000 | > 1000 | > 1000
CCCCCCCC[C@H](NC(=O)C(C)(C)NC(=O)C(C)(C)NC(=O)[C@H](CCCC(=O)CCCC)NC(=O)[C@H](C)N)C(=O)N[C@@H](CC(C)C)C(=O)NC(C)(C)C(=O)N[C@@H](CC(C)C)C(=O)NCCC(=O)N[C@@H](C)CNCCO (H-A[Nva(5-pentanoyl)][Aib][Aib][Gly(octyl)]L[Aib]L[βAla]-{NH((S)CH(Me)CH2NHC2H4OH)}) | 7 | 5 | 6 | 18
CCCCCCCC[C@H](NC(=O)C(C)(C)NC(=O)[C@H](C)NC(=O)[C@H](CCCC(=O)CCCC)NC(=O)C1CCCN1C(=O)CCC)C(=O)N[C@@H](CC(C)C)C(=O)NC(C)(C)C(=O)N[C@@H](CC(C)C)C(=O)NCCC(=O)N[C@@H](C)CNCCO (stereo partly drawn) (Butyryl-[ξP][Nva(5-pentanoyl)]A[Aib][Gly(octyl)]L[Aib]L[βAla]-{NH((S)CH(Me)CH2NHC2H4OH)}) | 42 | 44 | 31 | 75
CCCCCCCC[C@H](NC(=O)C(C)(C)NC(=O)C(C)(C)NC(=O)[C@H](C[C@H](C)C[C@@H](O)CC(=O)CC)NC(=O)[C@@H]1CCCN1C(=O)CCC)C(=O)N[C@@H](CC(C)C)C(=O)NC(C)(C)C(=O)N[C@@H](CC(C)C)C(=O)NCCC(=O)N[C@@H](C)CNCCO (Butyryl-P[X1][Aib][Aib][Gly(octyl)]L[Aib]L[βAla]-{NH((S)CH(Me)CH2NHC2H4OH)}) | 4 | 8 | 3 | 25
CCCCCCCC[C@H](NC(=O)C(C)(C)NC(=O)C(C)(C)NC(=O)[C@H](CCCC(=O)CCCC)NC(=O)C1CCCN1C(=O)CCC)C(=O)N[C@@H](C)C(=O)NC(C)(C)C(=O)N[C@@H](CC(C)C)C(=O)NCCC(=O)N[C@@H](C)CNCCO (stereo partly drawn) (Butyryl-[ξP][Nva(5-pentanoyl)][Aib][Aib][Gly(octyl)]A[Aib]L[βAla]-{NH((S)CH(Me)CH2NHC2H4OH)}) | 66 | 103 | 51 | 130
CCCCCCCC[C@H](NC(=O)C(C)(C)NC(=O)C(C)(C)NC(=O)[C@H](CCCC(=O)CCCC)NC(=O)C1CCCN1C(=O)CCC)C(=O)N[C@@H](CC(C)C)C(=O)NC(C)(C)C(=O)N[C@@H](CC(C)C)C(=O)N[C@@H](C)C(=O)N[C@@H](C)CNCCO (stereo partly drawn) (Butyryl-[ξP][Nva(5-pentanoyl)][Aib][Aib][Gly(octyl)]L[Aib]LA-{NH((S)CH(Me)CH2NHC2H4OH)}) | 26 | 16 | 21 | 36
CCCCCCCC[C@H](NC(=O)C(C)(C)NC(=O)C(C)(C)NC(=O)[C@H](Cc1c[nH]c2ccccc12)NC(=O)[C@@H]1CCCN1C(=O)CCC)C(=O)N[C@@H](CC(C)C)C(=O)NC(C)(C)C(=O)N[C@@H](CC(C)C)C(=O)NCCC(=O)N[C@@H](C)CNCCO (Butyryl-PW[Aib][Aib][Gly(octyl)]L[Aib]L[βAla]-{NH((S)CH(Me)CH2NHC2H4OH)}) | 21 | 23 | 15 | 60
CCCCCCCC[C@H](NC(=O)[C@@H]1CCCN1C(=O)CCC)C(=O)NC(C)(C)C(=O)NC(C)(C)C(=O)N[C@@H](CCCCCCCC)C(=O)N[C@@H](CC(C)C)C(=O)NC(C)(C)C(=O)N[C@@H](CC(C)C)C(=O)NCCC(=O)N[C@@H](C)CNCCO (Butyryl-P[Gly(octyl)][Aib][Aib][Gly(octyl)]L[Aib]L[βAla]-{NH((S)CH(Me)CH2NHC2H4OH)}) | 5 | 5 | 7 | 15

Other lines, results leading:

IC50 [1] [nM] | IC50 [2] [nM] | IC50 [3] [nM] | IC50 [4] [nM] | SMILES
68 | 71 | 61 | 343 | CCCCCCCC[C@H](NC(=O)C(C)(C)NC(=O)C(C)(C)NC(=O)[C@H](C)NC(=O)C1CCCN1C(=O)CCC)C(=O)N[C@@H](CC(C)C)C(=O)NC(C)(C)C(=O)N[C@@H](CC(C)C)C(=O)NCCC(=O)N[C@@H](C)CNCCO (stereo partly drawn) (Butyryl-[ξP]A[Aib][Aib][Gly(octyl)]L[Aib]L[βAla]-{NH((S)CH(Me)CH2NHC2H4OH)})
64 | 87 | 57 | 236 | CCCCCCCC[C@H](NC(=O)C(C)(C)NC(=O)C(C)(C)NC(=O)C1(NC(=O)[C@@H]2CCCN2C(=O)CCC)CC1)C(=O)N[C@@H](CC(C)C)C(=O)NC(C)(C)C(=O)N[C@@H](CC(C)C)C(=O)NCCC(=O)N[C@@H](C)CNCCO (Butyryl-P[Ac3c][Aib][Aib][Gly(octyl)]L[Aib]L[βAla]-{NH((S)CH(Me)CH2NHC2H4OH)})
90 | 496 | 130 | > 1000 | CCCC(=O)N1CCC[C@H]1C(=O)N[C@@H](C[C@H](C)C[C@@H](O)CC(=O)CC)C(=O)NC(C)(C)C(=O)NC(C)(C)C(=O)N[C@@H](CC(C)C)C(=O)N[C@@H](CC(C)C)C(=O)NC(C)(C)C(=O)N[C@@H](CC(C)C)C(=O)NCCC(=O)N[C@@H](C)CNCCO (Butyryl-P[X1][Aib][Aib]LL[Aib]L[βAla]-{NH((S)CH(Me)CH2NHC2H4OH)})
7 | 6 | 8 | 25 | CCCCCCCC[C@H](NC(=O)C(C)(C)NC(=O)C(C)(C)NC(=O)[C@H](Cc1ccccc1)NC(=O)[C@@H]1CCCN1C(=O)CCC)C(=O)N[C@@H](CC(C)C)C(=O)NC(C)(C)C(=O)N[C@@H](CC(C)C)C(=O)NCCC(=O)N[C@@H](C)CNCCO (Butyryl-PF[Aib][Aib][Gly(octyl)]L[Aib]L[βAla]-{NH((S)CH(Me)CH2NHC2H4OH)})
21 | 20 | 27 | 24 | CCCCCCCC[C@H](NC(=O)[C@H](C)NC(=O)C(C)(C)NC(=O)[C@H](CCCC(=O)CCCC)NC(=O)C1CCCN1C(=O)CCC)C(=O)N[C@@H](CC(C)C)C(=O)NC(C)(C)C(=O)N[C@@H](CC(C)C)C(=O)NCCC(=O)N[C@@H](C)CNCCO (stereo partly drawn) (Butyryl-[ξP][Nva(5-pentanoyl)][Aib]A[Gly(octyl)]L[Aib]L[βAla]-{NH((S)CH(Me)CH2NHC2H4OH)})
> 1000 | > 10000 | > 1000 | > 30000 | CCCC(=O)N1CCC[C@H]1C(=O)N[C@@H](C[C@H](C)C[C@@H](O)CC(=O)CC)C(=O)NC(C)(C)C(=O)NC(C)(C)C(=O)N[C@@H](C)C(=O)N[C@@H](CC(C)C)C(=O)NC(C)(C)C(=O)N[C@@H](CC(C)C)C(=O)NCCC(=O)N[C@@H](C)CNCCO (Butyryl-P[X1][Aib][Aib]AL[Aib]L[βAla]-{NH((S)CH(Me)CH2NHC2H4OH)})
274 | > 1000 | 420 | > 1000 | CCCC(=O)N1CCC[C@H]1C(=O)N[C@@H](C[C@H](C)C[C@@H](O)CC(=O)CC)C(=O)NC(C)(C)C(=O)NC(C)(C)C(=O)N[C@@H](CCC)C(=O)N[C@@H](CC(C)C)C(=O)NC(C)(C)C(=O)N[C@@H](CC(C)C)C(=O)NCCC(=O)N[C@@H](C)CNCCO (Butyryl-P[X1][Aib][Aib][Nva]L[Aib]L[βAla]-{NH((S)CH(Me)CH2NHC2H4OH)})
